Laboratory results taken from patent US20250205361A1, “TREATMENT […] FOR T[…] […] ACT VIA AN INT[…] TARGET” (priority 2023, published 2025).

Key:
[1] = test system: Ttr RNA; test: Ttr RNA quantification (qRT-PCR) in murine primary hepatocytes, depot release; assay type: cell-based, mouse; details: 0.05 nM GN3-siTTR 6 hrs loading, wash, saponin component 48 hrs
Method: Wells of a 24- or 96-well plate (Greiner BioOne) were coated overnight at 37° C. with rat collagen-I (Ibidi). Next day the coating solution was removed and the wells were washed 1× with PBS (PAN-Biotech GmbH). Hepatocyte Plating Medium (HPM, […] Cell Culture Technology GmbH) was added using 210 μl or 35 μl per well, per 24-wp or 96-wp respectively. Next, GN3-siTTR/DPBS was dissolved at 10× the final concentration (final concentration is 0.5 nM or 0.05 nM GN3-siTTR, as indicated) and 90 μl or 15 μl was added to each well, per 24-wp or 96-wp respectively. Cryopreserved primary mouse hepatocytes (Cytes Biotechnology) were thawed in Hepatocyte Thawing Medium (HTM, […] Cell Culture Technology GmbH) and collected by centrifugation at 50×g for 10 min. […]
RNA from cells was isolated using TRIzol™ Reagent (Thermo Scientific) according to the manufacturer's instruction. […] Ttr expression levels and levels of specific hepatocyte housekeeping genes were determined using quantitative real-time PCR assays (qRT-PCR) using iTaq™ Universal SYBR® Green Supermix (BioRad) and the Light Cycler 480 II (Roche Diagnostics) with specific DNA primers, listed in Table A2. […]
The timed, saponin-component-inducible release of a nucleic acid from endosomes after prior loading cells with the nucleic acid was also assessed in vitro in murine primary hepatocytes (MPH) in different dosing regimens. […]

[2] = test system: A431 cells; test: Cell viability (MTS) of A431 cells with aCD71-SPRN and saponin components; assay type: cell-based, human; details: for potency of aCD71-SPRN versus co-administration / efficacy enhancement of aCD71-SPRN: 5 pM aCD71-SPRN 24 hr loading, wash; for efficacy enhancement of aCD71-SPRN: 24 hrs resting; for relative cell viability, efficacy of aCD71-SPRN: 5 pM aCD71-SPRN + concentration range of saponin component, 48 hr co-administration
Method: Cells were cultured in DMEM (PAN-Biotech GmbH) supplemented with 10% fetal bovine serum (FBS) (PAN-Biotech GmbH) and Pen/Strep (PAN-Biotech GmbH) at 37° C. and 5% CO2. Cells were seeded in a 96-well plate at 5.000-6.000 cells/well in 100 μL/well and incubated overnight at 37° C. […] The medium was removed from the cell culture plate and replaced by 180 μL fresh culture medium, followed by the addition of 20 μL 10× compound-mix/well. PBS treatment served as vehicle control. After 24 hrs treatment, the cells were washed and incubated with medium or medium containing PBS/saponin components for the time indicated in FIG. 6B, 6C, 6D at 37° C. At the end of the experiment at 48 hr after saponin component treatment or PBS treatment the cells were harvested for cell viability analysis. Alternatively, as a positive control, the cells were treated with a co-administration of protein toxin and saponin component (or PBS) mix for 48 hrs without medium change, FIG. 6A.
After treatment cell viability was determined by an MTS-assay, performed according to the manufacturer's instruction (CellTiter 96@AQueous One Solution Cell Proliferation Assay, Promega). Briefly, the MTS solution was diluted 20′ in DMEM without phenol red (PAN-Biotech GmbH) supplemented with 10% FBS. The cells were washed once with 200 μL/PBS well, after which 100 μL diluted MTS solution was added/well. The plate was incubated for approximately 20-30 minutes at 37° C. Subsequently, the OD at 492 nm was measured on a Spectramax iD5 plate reader (Molecular Devices). For quantification the background signal of ‘medium only’ wells was subtracted from all other wells, before the cell viability percentage of treated/untreated cells was calculated, by dividing the background corrected signal of treated wells over the background corrected signal of the untreated wells (×100).
One disadvantage of these types of immunotoxins for clinical use is their relatively narrow therapeutic window and associated potentially life-threatening toxicities at dose levels that are therapeutic. Here, the in vitro efficacy and enhancement of effect durability of an immunotoxin (anti-CD71-saporin, also referred to as aCD71-SPRN, protein toxin) by endosome escape enhancer saponin components was assessed in epidermoid carcinoma cells and metastatic melanoma cells. A concentration range of a saponin component was added either together with a fixed concentration of 5 pM aCD71-SPRN to the cancer cells, or at various time points after the loading of the cancer cells with a fixed concentration of 5 pM aCD71-SPRN (according to dosing schemes in FIG. 6A, 6B, 6C, 6D). As a negative control, cells were loaded with protein toxin according to scheme FIG. 6A-D but received medium with PBS instead of saponin component.

[3] = test system: A431 cells; test: Imaging of Cy5 fluorescence release from Cet-Cy5 loaded A431 cells; assay type: cell-based, human; details: A431 loaded with 2 nM Cet-Cy5 48 hrs, wash, 24 hrs resting, saponin component added at 72 hrs
Method: Cells were cultured in DMEM (PAN-Biotech GmbH) supplemented with 10% fetal bovine serum (FBS) (PAN-Biotech GmbH) and Pen/Strep (PAN-Biotech GmbH) at 37° C. and 5% CO2.

[4] = 6 hrs resting, saponin component 48 hrs
[5] = saponin component added directly, 48 hrs

SMILES	remaining Ttr levels [1] [%]	potency of aCD71-SPRN versus co-administration [2, 4]	efficacy enhancement of aCD71-SPRN ([2]; saponin component 48 hrs)	potency of aCD71-SPRN versus co-administration [2, 5]	relative cell viability, efficacy of aCD71-SPRN [2]	Cy5 fluorescence state at end of experiment at 160 hrs [3]
CC(=O)OC1C(C)OC(OC2C(C)OC(OC(=O)[C@]34CCC(C)(C)CC3C3=CCC5[C@@]6(C)CC[C@H](OC7OC(C(=O)O)C(O)C(OC8OCC(O)C(O)C8O)C7OC7OC(CO)C(O)C(O)C7O)[C@@](C)(/C=N/NC(=O)CCCCCN7C(=O)CC(SCCO)C7=O)C6CC[C@@]5(C)[C@]3(C)C[C@H]4O)C(OC3OC(C)C(OC4OCC(O)C(OC5OC(CO)C(O)C(O)C5O)C4O)C(O)C3O)C2O)C(O)C1OC1OCC(O)C(O)C1O (some centres unmarked) [SO1861-AH-Maleimide-Block]	3	very comparable to the co-administration	still apparent	comparable high potency	reduces cell viability	–
CC(=O)O[C@H]1[C@H](O[C@@H]2OC[C@@H](O)[C@H](O)[C@H]2O)[C@@H](O)[C@H](O[C@@H]2[C@H](O)[C@@H](O[C@@H]3O[C@@H](C)[C@H](O[C@@H]4OC[C@@H](O)[C@H](O[C@@H]5O[C@H](CO)[C@@H](O)[C@H](O)[C@H]5O)[C@H]4O)[C@@H](O)[C@H]3O)[C@H](OC(=O)[C@]34CCC(C)(C)C[C@H]3C3=CC[C@@H]5[C@@]6(C)CC[C@H](O[C@@H]7O[C@H](C(=O)O)[C@@H](O)[C@H](O[C@@H]8OC[C@@H](O)[C@H](O)[C@H]8O)[C@H]7O[C@@H]7O[C@H](CO)[C@H](O)[C@H](O)[C@H]7O)[C@@](C)(C=O)[C@@H]6CC[C@@]5(C)[C@]3(C)C[C@H]4O)O[C@@H]2C)O[C@@H]1C [SO1861]	10	very comparable to the co-administration	still apparent	comparable high potency	reduces cell viability	zero fluorescent state
